Consider twelve molecules from patent US10517870B2, “Aryl substituted bicycle heteroaryl compounds” (Bristol-Myers Squibb Company, priority 2015, dated 2019).

Type in all cases: cell-based
Assay [1] has as its target T1, PAR4 (Homo sapiens, UniProt Q96RI0).
T1 construct: expressed in transfected cells; host or cells: HEK293 PAR4 Clone 1.2A
T1 sequence (Q96RI0 18-385): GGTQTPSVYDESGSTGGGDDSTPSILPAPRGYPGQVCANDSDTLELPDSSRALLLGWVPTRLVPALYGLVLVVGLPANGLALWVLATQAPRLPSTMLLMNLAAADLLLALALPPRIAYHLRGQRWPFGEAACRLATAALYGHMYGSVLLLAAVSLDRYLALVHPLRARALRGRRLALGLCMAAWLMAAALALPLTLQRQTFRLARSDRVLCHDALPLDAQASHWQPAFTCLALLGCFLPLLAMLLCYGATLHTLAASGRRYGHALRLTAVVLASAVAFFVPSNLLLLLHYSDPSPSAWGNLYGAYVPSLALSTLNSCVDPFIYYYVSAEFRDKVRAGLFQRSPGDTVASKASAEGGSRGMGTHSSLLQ
Briefly: PAR4 FLIPR assay (calcium mobilization, antagonist activity) in PAR4-expressing HEK293 cells. An excerpt:
The FLIPR assay is an exemplary in vitro assay for measuring the activity of the PAR4 antagonists of the present invention. In this assay, intracellular calcium mobilization is induced in PAR4 expressing cells by a PAR4 agonist and calcium mobilization is monitored.
HEK293 cells stably expressing PAR4 were generated by a standard method of transfection of human PAR4 (F2R23) cDNA expression vector and selected based on PAR4 protein expression or mRNA expression. […] These cells also express endogenous PAR1 and can elicit calcium signal upon stimulation with PAR1 agonist peptide. Therefore, the same cells were also used to determine selectivity against PAR1 and agonist activity for both receptors. Cells from HEK293 PAR4 Clone 1.2A (BMS Arctic ID 383940) were propagated and used for calcium mobilization studies.
FLIPR-based calcium mobilization assay in HEK293 cells was used to measure PAR4 antagonism, agonism, and selectivity against PAR1. The activity of the PAR4 antagonists of the present invention were tested in PAR4 expressing cells by monitoring H-Ala-Phe(4-F)-[…]NH2-induced intracellular calcium mobilization. Counter screens for agonist activity and PAR1 antagonist activity were also performed. Briefly, PAR1/PAR4-expressing HEK293 cells were grown in DMEM (Life Technology, Grand Island, N.Y.) containing 10% heat-inactivated FBS, 1% Penicillin-Streptomycin, 10 μg/mL blasticidin, and 100 μg/mL Zeocin at 37° C. with 5% CO2. Cells were plated overnight prior to the experiment in a black 384-well Purecoat Amine clear bottom plate (Becton Dickinson Biosciences, San Jose, Calif.) at 10,000 cells/well in 30 μL growth medium and incubated in a humidified chamber at 37° C. with 5% CO2 overnight. Prior to compound addition, the cell medium was replaced with 40 μL of IX calcium and magnesium-containing Hank's Balanced Saline Solution (HBSS) (with 20 mM HEPES) and 1:1000 diluted fluorescent calcium indicator (Codex Biosolutions, Gaithersburg, Md.). After a 30 minute incubation period at 37° C., and a further 30 minute incubation and equilibration period at room temperature, 20 μL test compound (diluted in 1×HBSS buffer) was added at various concentrations at 0.17% dimethyl sulfoxide (DMSO) final concentration. Changes in fluorescence intensity were measured using a Functional Drug Screening System (FDSS, Hamamatsu, Japan) to determine agonist activities. The cells were then incubated for 30 minutes at room temperature followed by addition of 20 μL of agonist peptide for antagonist activity measurement. […] Compound potency was derived from 11-point concentration-response curves.

In assay [2] the test system is C33A (HPV−) cells. Briefly: Cell proliferation/viability assay, C33A cells. The settings on record: Homo sapiens, C-33-A, 96 h, read-out: C33A (HPV−) Proliferation IC50 (μM). Here is the method:
(§1) Caski (catalog number CRL-1550), SiHa (catalog number HTB-35), C33A (catalog number HTB-31), Saos-2 (ATCC HTB-85), and Hela (catalog number CCL-2) cells were obtained from the American Type Culture Collection (ATCC). The human cervical carcinoma cell lines Caski. SiHa, Hela and C33A, and the human osteosarcoma cell line Saos-2, and the human keratinocyte cell line HaCaT were cultured in Dulbecco's Modified Eagle Medium (DMEM, Invitrogen catalog number 11965-092) supplemented with 10% fetal bovine serum. The colorectal carcinoma cell line HCT-116 was cultured in Roswell Park Memorial Institute-1640 Medium (Invitrogen catalog number 11875-093) supplemented with 10% FBS. All cells were incubated at 37° C. in a humidified atmosphere with 5% CO2 in air. To establish the SCHPV-18 cell line, one million primary neonatal human foreskin keratinocytes (Invitrogen, catalog no. C-001-5C), cultured in KBM Gold-keratinocvte cell basal medium (Lonza, catalog no. 192060), were electroporated with 5 μg HPV-18 plasmid DNA (ATCC catalog no. 45152D) using the Amaxa Nucleofector II on setting T-007. Cells were co-transfected with 2 μg plasmid pZSGreen1-N1 (Clontech catalog no. 632448) encoding G418 resistance, and cells were selected for four days in 100 μg/ml G418, after which selection was removed. Cells were maintained in culture six months prior to compound testing. Integration of the HPV 18 genome was confirmed by Southern blot. Control cells transfected in parallel with pZSGreen1-N1 alone became senescent four days after selection and the culture could not be expanded. SCHPV-18 cells were maintained in E medium (Fehrmann F, Laimins L A. Human papillomavirus type 31 life cycle: methods for study using tissue culture models. Methods Mol Biol 2005; 292:317-330).
(§2) For proliferation assays, cells were plated in white polystyrene 96-well plates (Costar catalog number 3917) for CellTiter Glo viability assays or 96-well special optics plates (Costar cat #3614) for CellTiter Blue viability assays. Cells were plated in the appropriate growth medium without antibiotics. Two hours after cell plating, a 200× compound stock diluted in DMSO was added to a final concentration of 0.5%. Plates were incubated at 37° C., for 4 days and then cell viability was assessed using either CellTiter Blue (Promega catalog number G8081) or CellTiter Glo (Promega catalog number G7572) according to the manufacturer's instructions. For the CellTiter Blue viability assay, data was collected using the SpectraMax Gemini EM (Molecular Devices) with an excitation wavelength of 530 nm and emission wavelength of 590 nm. For the CellTiter Glo viability assay, data was collected using the Envision Mulitlabel Reader (Perkin Elmer catalog number 2104-0010). To calculate IC50 and EC50 values, percent inhibition curves were fit using a four-parameter logistic formula [y=A+[…]], where A and B denote minimal and maximal % inhibition, respectively, C is the IC50 value, D is the Hill slope, and x represents compound concentration.
(§3) Table C, below, sets out the results obtained employing various compounds of the invention tested for their effects on proliferation of such cells. Caski or SiHa cells, transformed by HPV 16, Hela cells, transformed by HPV 18, or HPV-negative control cell lines (Saos-2 or C33a) were treated with various compounds. […] Unlike the HPV-negative Saos-2 or C33a cell lines, the HPV-transformed cell lines rely on the presence of HPV for their continued proliferation. Therefore, a comparison of IC50 values from HPV-transformed cell lines with IC50 values obtained from HPV-negative cell lines can be used to test for compound selectivity.

Assay [3] concerns SiHa (HPV16+) cells. Briefly: Cell proliferation/viability assay, SiHa cells. The following applies: Homo sapiens, 96 h, 4 days. How it is done: as §1, §2, §3
The test system of assay [4] is HeLa (HPV18+) cells. Briefly: Cell proliferation/viability assay, HeLa cells. The settings on record: Homo sapiens, 96 h, 4 days. Here is the method: as §1, §2, §3
Assay [5] concerns Caski (HPV16+) cells. The assay can be described thus: Cell proliferation/viability assay, Caski cells. The settings on record: Homo sapiens, Ca-Ski, 96 h, 4 days. How it is done:
as §1, §2, §3

Assay [6] relates to Saos-2 (HPV−) cells. The assay can be described thus: Cell proliferation/viability assay, Saos-2 cells. The settings on record: Homo sapiens, SAOS-2, 96 h, read-out: Saos-2 (HPV−) Proliferation IC50 (μM). Here is the method: as §1, §2, §3

A value given as a limit tells only on which side of the number the result lay.

Take `Cc1cc(-c2ccc(C(F)(F)F)cc2)c2ncc(OC(F)F)nc2c1` [Example 19]: the IC50 in assay [1] was 0.8 µM; in assay [2], > 100 µM; in assay [3] it was 20.5 µM; in assay [4], 29.9 µM; in assay [5], 14.6 µM; in assay [6], > 100 µM.

Turning to `Cc1cc(-c2ccc(Cl)c(Cl)c2)c2ncc(OC(F)F)nc2c1` [Example 24, 5-(3,4-dichlorophenyl)-2-(difluoromethoxy)-7-methylquinoxaline], the IC50 in assay [1] is 3.3 µM; in assay [2], 89.4 µM; in assay [3] it was 8.9 µM; in assay [4], 12.7 µM; in assay [5], 12.8 µM; in assay [6], > 100 µM.

Regarding `Cc1cc(-c2ccc(OC(F)(F)F)cc2)c2ncc(OC(F)F)nc2c1` [Example 20, 2-(difluoromethoxy)-7-methyl-5-(4-(trifluoromethoxy)phenyl)quinoxaline], the IC50 was 1.2 µM in assay [1]; 83.5 µM in assay [2]; 22.1 µM in assay [3]; 45.1 µM in assay [4]; 16.4 µM in assay [5]; > 100 µM in assay [6].

`C#Cc1cc(-c2ccc(OC)cc2)c2ncc(OC(F)F)nc2c1` [Example 5, 2-(difluoromethoxy)-7-ethynyl-5-(4-methoxyphenyl)quinoxaline]: the IC50 in assay [1] is 0.25 µM; in assay [2], 42.3 µM; in assay [3] it was 4.5 µM; in assay [4], 3.3 µM; in assay [5], 3.4 µM; in assay [6], 53.1 µM.

Consider `COc1ccc(-c2cc(C#N)cc3nc(OC(F)F)cnc23)cc1` [Example 1, 3-(difluoromethoxy)-8-(4-methoxyphenyl)quinoxaline-6-carbonitrile], for which the IC50 was determined as 1.9 µM in assay [1]; 6.9 µM in assay [2]; 1.7 µM in assay [3]; 1.5 µM in assay [4]; 2.3 µM in assay [5]; 7.7 µM in assay [6].

Consider `Cc1cc(-c2ccc(Cl)cc2Cl)c2ncc(OC(F)F)nc2c1` [Example 23, 5-(2,4-dichlorophenyl)-2-(difluoromethoxy)-7-methylquinoxaline], for which the IC50 in assay [1] was 0.012 µM; in assay [2] it was 79.7 µM; in assay [3], 9.3 µM; in assay [4] it was 10.9 µM; in assay [5] it was 12.9 µM; in assay [6] it was > 100 µM.

As for `Cc1cc(-c2cccc(OC(F)(F)F)c2)c2ncc(OC(F)F)nc2c1` [Example 26, 2-(difluoromethoxy)-7-methyl-5-(3-(trifluoromethoxy)phenyl) quinoxaline], the IC50 in assay [1] is 0.4 µM; in assay [2], > 100 µM; in assay [3], 3.8 µM; in assay [4], 4.6 µM; in assay [5], 6 µM; in assay [6], > 100 µM.

`Cc1cc(-c2ccc(F)c(F)c2)c2ncc(OC(F)F)nc2c1` [Example 22, 2-(difluoromethoxy)-5-(3,4-difluorophenyl)-7-methylquinoxaline]: the IC50 in assay [1] came out at 1 µM; in assay [2], 94.4 µM; in assay [3], 12.6 µM; in assay [4] it was 16.9 µM; in assay [5] it was 15.9 µM; in assay [6], 70.6 µM.

For `Cc1cc(-c2cccc(Cl)c2)c2ncc(OC(F)F)nc2c1` [Example 18, 5-(3-chlorophenyl)-2-(difluoromethoxy)-7-methylquinoxaline], the IC50 in assay [1] is 1.4 µM; in assay [2] it was > 100 µM; in assay [3], 11.6 µM; in assay [4], 13.2 µM; in assay [5] it was 13.9 µM; in assay [6], > 100 µM.

For `COc1cc(F)cc(-c2cc(C)cc3nc(OC(F)F)cnc23)c1` [Example 21, 2-(difluoromethoxy)-5-(3-fluoro-5-methoxyphenyl)-7-methylquinoxaline], the IC50 in assay [1] was 2.2 µM; in assay [2], > 100 µM; in assay [3], 11.7 µM; in assay [4] it was 14.7 µM; in assay [5], 13.3 µM; in assay [6], > 100 µM.

Turning to `COc1ccc(-c2cc(C(F)(F)F)cc3nc(OC(F)F)cnc23)cc1` [Example 8, 2-(difluoromethoxy)-5-(4-methoxyphenyl)-7-(trifluoromethyl)quinoxaline], the IC50 in assay [1] was 1.5 µM; in assay [2], > 99.5 µM; in assay [3], 4.3 µM; in assay [4], 2.3 µM; in assay [5] it was 2.5 µM; in assay [6], 58.3 µM.

For the molecule `COc1ccc(-c2cc(Cl)cc3nc(OC(F)F)cnc23)cc1` [Example 2, 7-Chloro-2-(difluoromethoxy)-5-(4-methoxyphenyl)quinoxaline], the IC50 in assay [1] was 2.1 µM; in assay [2] it was 54 µM; in assay [3], 8 µM; in assay [4] it was 9.3 µM; in assay [5] it was 10 µM; in assay [6], > 100 µM.
